Assay results as given in patent publication US6737383B1, “Herbicidal oxadiazolidines” (priority 1999, dated 2004).

Columns and labels:
[1] = tested on: soybean; experiment: Test B pre/postemergence soybean; assay type: in vivo, Glycine max
How it was run: (§1)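 Herbicidal effect was estimated by eye on a ten-point control scale after plants spent twelve to sixteen days in a greenhouse following soil or foliar treatment. Foliar sprays targeted plants at one to four leaves; all doses were formulated in a non-phytotoxic solvent with surfactant.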

[2] = tested on: giant foxtail; experiment: Test B pre/postemergence giant foxtail; assay type: in vivo, Setaria faberii
How it was run: as §1

[3] = tested on: surinam grass; experiment: Test B pre/postemergence surinam grass; assay type: in vivo, Brachiaria decumbens
How it was run: as §1

[4] = tested on: sugar beet; experiment: Test B pre/postemergence sugar beet; assay type: in vivo, Beta vulgaris
How it was run: as §1

[5] = tested on: blackgrass; experiment: Test B pre/postemergence blackgrass; assay type: in vivo, Alopecurus myosuroides
How it was run: as §1

[6] = tested on: morningglory; experiment: Test B pre/postemergence morningglory; assay type: in vivo, Ipomoea hederacea
How it was run: as §1

[7] = tested on: purple nutsedge; experiment: Test B pre/postemergence purple nutsedge; assay type: in vivo, Cyperus rotundus
How it was run: as §1

[8] = tested on: corn; experiment: Test B pre/postemergence corn; assay type: in vivo, Zea mays
How it was run: as §1

[9] = tested on: rape; experiment: Test B pre/postemergence rape; assay type: in vivo, Brassica napus
How it was run: as §1

[10] = tested on: bedstraw; experiment: Test B pre/postemergence bedstraw; assay type: in vivo, Galium aparine
How it was run: as §1

[11] = tested on: velvetleaf; experiment: Test B pre/postemergence velvetleaf; assay type: in vivo, Abutilon theophrasti
How it was run: as §1

[12] = tested on: pigweed; experiment: Test B pre/postemergence pigweed; assay type: in vivo, Amaranthus retroflexus
How it was run: as §1

[13] = Postemergence, Rate 125 g/ha, scale of 0 to 10 where 0 is no effect and 10 is complete control
[14] = Preemergence, Rate 62 g/ha, scale of 0 to 10 where 0 is no effect and 10 is complete control
[15] = Preemergence, Rate 125 g/ha, 0 is no effect, 10 is complete control
[16] = Preemergence, Rate 250 g/ha, scale 0 to 10, 0 is no effect, 10 is complete control
[17] = Preemergence, Rate 500 g/ha, scale 0 to 10 (0 no effect, 10 complete control)
[18] = Rate 62 g/ha, Postemergence, scale of 0 to 10 where 0 is no effect and 10 is complete control
[19] = Rate 250 g/ha, Postemergence, scale 0 to 10, 0 is no effect, 10 is complete control
[20] = Rate 500 g/ha, Postemergence, scale 0 to 10

CC1CCCCC1n1c(=O)on(C(=O)N(c2ccc(F)cc2F)C(C)C)c1=O (stereo not drawn) [Compound 172]
9: Giant foxtail plant response rating (0 to 10 scale) [2, 15]
8: Giant foxtail plant response rating [2, 14] | B. signalgrass plant response rating [3, 17] | Morningglory plant response rating [6, 20] | Plant response rating, Bedstraw [10, 19] | Redroot pigweed plant response rating [12, 16] | Redroot pigweed plant response rating [12, 17]
3: Soybean plant response rating [1, 13] | Plant response rating, Soybean [1, 19] | Blackgrass plant response rating [5, 16] | Blackgrass plant response rating [5, 17] | Bedstraw plant response rating [10, 16] | Velvetleaf plant response rating [11, 17] | Plant response rating, Redroot pigweed [12, 19]
5: Soybean plant response rating [1, 20] | B. signalgrass plant response rating (0 to 10 scale) [3, 15] | B. signalgrass plant response rating [3, 16] | Sugarbeets plant response rating [4, 16] | Sugarbeets plant response rating [4, 17] | Plant response rating, Blackgrass [5, 19] | Blackgrass plant response rating [5, 20] | Morningglory plant response rating [6, 13] | Plant response rating, Morningglory [6, 19] | Rape plant response rating [9, 17] | Bedstraw plant response rating [10, 17]
2: Soybean plant response rating [1, 18] | B. signalgrass plant response rating [3, 14] | Sugarbeets plant response rating (0 to 10 scale) [4, 15] | Morningglory plant response rating [6, 18] | Velvetleaf plant response rating [11, 20]
7: Redroot pigweed plant response rating [12, 20]
10: Giant foxtail plant response rating [2, 16] | Giant foxtail plant response rating [2, 17]
6: Redroot pigweed plant response rating (0 to 10 scale) [12, 15]
0: Soybean plant response rating [1, 14] | Soybean plant response rating (0 to 10 scale) [1, 15] | Soybean plant response rating [1, 16] | Soybean plant response rating [1, 17] | Giant foxtail plant response rating [2, 13] | Giant foxtail plant response rating [2, 18] | Plant response rating, Giant foxtail [2, 19] | Giant foxtail plant response rating [2, 20] | B. signalgrass plant response rating [3, 13] | B. signalgrass plant response rating [3, 18] | Plant response rating, B. signalgrass [3, 19] | B. signalgrass plant response rating ([3]; Rate 500 g/ha, Postemergence, scale 0 to 10, 0 no effect, 10 complete control) | Sugarbeets plant response rating [4, 13] | Sugarbeets plant response rating [4, 14] | Sugarbeets plant response rating [4, 18] | Plant response rating, Sugarbeets [4, 19] | Sugarbeets plant response rating [4, 20] | Blackgrass plant response rating [5, 13] | Blackgrass plant response rating [5, 14] | Blackgrass plant response rating (0 to 10 scale) [5, 15] | Blackgrass plant response rating [5, 18] | Morningglory plant response rating [6, 14] | Morningglory plant response rating (0 to 10 scale) [6, 15] | Morningglory plant response rating [6, 16] | Morningglory plant response rating [6, 17] | Nutsedge plant response rating [7, 13] | Nutsedge plant response rating [7, 14] | Nutsedge plant response rating (0 to 10 scale) [7, 15] | Nutsedge plant response rating [7, 16] | Nutsedge plant response rating [7, 17] | Nutsedge plant response rating [7, 18] | Plant response rating, Nutsedge [7, 19] | Nutsedge plant response rating [7, 20] | Corn plant response rating [8, 13] | Corn plant response rating [8, 14] | Corn plant response rating (0 to 10 scale) [8, 15] | Corn plant response rating [8, 16] | Corn plant response rating [8, 17] | Corn plant response rating [8, 18] | Plant response rating, Corn [8, 19] | Corn plant response rating [8, 20] | Rape plant response rating [9, 13] | Rape plant response rating [9, 14] | Rape plant response rating (0 to 10 scale) [9, 15] | Rape plant response rating [9, 16] | Rape plant response rating [9, 18] | Plant response rating, Rape [9, 19] | Rape plant response rating [9, 20] | Bedstraw plant response rating [10, 13] | Bedstraw plant response rating [10, 14] | Bedstraw plant response rating (0 to 10 scale) [10, 15] | Bedstraw plant response rating [10, 18] | Velvetleaf plant response rating [11, 14] | Velvetleaf plant response rating (0 to 10 scale) [11, 15] | Velvetleaf plant response rating [11, 16] | Plant response rating, Velvetleaf [11, 19] | Redroot pigweed plant response rating [12, 13] | Redroot pigweed plant response rating [12, 14] | Redroot pigweed plant response rating [12, 18]
